These results are taken from patent publication US7402597B2, “Activator of peroxisome proliferator-activated receptor δ” (Nippon Chemiphar Co., Ltd, priority 2001, dated 2008).

Like-named read-outs stand apart in the source and are kept apart here.

One experiment deals with T1, PPARα (Homo sapiens, UniProt Q07869).
T1 construct: Receptor expression plasmid (GAL4-hPPARα, LBD GAL4-hPPARγ LBD, GAL4-hPPARδ LBD); expressed in transfected cells; host or cells: CV-1 cells
T1 sequence (Q07869 239-466 limits assumed): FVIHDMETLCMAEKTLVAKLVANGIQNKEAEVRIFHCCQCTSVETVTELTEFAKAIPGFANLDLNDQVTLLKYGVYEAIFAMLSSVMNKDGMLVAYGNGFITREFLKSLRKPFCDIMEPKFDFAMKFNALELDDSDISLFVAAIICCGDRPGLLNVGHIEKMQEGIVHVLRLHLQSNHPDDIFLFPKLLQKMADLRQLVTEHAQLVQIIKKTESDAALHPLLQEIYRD
Nature of the experiment: PPARα transactivation activity (GAL4-hPPARα LBD luciferase reporter in CV-1 cells). It counts as cell-based. To be noted: for Relative activity for PPAR transactivation, α: compounds at 10^-7 M; for Relative PPARα transactivation activity (α): test compound 10^-6 M, 40 hours, CV-1 cells, 100% = 10^-4 M, 0% = DMSO (0.1%). As to the method: (§1) (1) Measurement of PPARα, γ, δ transactivation activity
PPARα, γ, δ transactivation activity of each compound [Examples 1-4] was measured in the manner described below.
(§2) CV-1 cells were obtained from Tohoku University Aging Medical Laboratory, Medical Cell Collection Center. All test compounds were dissolved in dimethylsulfoxide (DMSO). Final concentration of DMSO was 0.1%.
Receptor expression plasmid (GAL4-hPPARα, LBD GAL4-hPPARγ LBD, GAL4-hPPARδ LBD), Reporter plasmid (UASx4-TK-LUC), and β-galactosidase expression plasmid (βGAL) similar to Kliewer, S. A., et al., ((1992) Nature, 358:771-774) were used.
CV-1 cells were seeded in 24 well culture plates at 2×10^5 cells per well, and cultured for 24 hours OPTI-MEM I Reduced Serum Medium (Life Technologies, 500 μL/well) containing 4%-fetal bovine serum (FBS). After washing with OPTI-MEM, transfection mixture (250 μL/well) containing 0.03 μg of GAL4-hPPARδ LBD, 0.25 μg of UASx4-TK-LUC, 0.35 μg of βGAL, and 2 μL of lipofection reagent, DMRIE-C (Life Technologies) were added. The cells were incubated for 5 hours at 37° C.
The cells were washed and incubated for 40 hours in the presence of the test compound (final concentration was 10^−6M).
(§3) The culture medium was removed and the cells were washed with PBS twice. A solubilizing buffer (100 μL/well) containing 25 mM Tris-PO4 (pH 7.8), 15%v/v glycerol, 2% CHAPS, 1% Lecithin, 1% BSA, 4 mM EGTA (pH 8.0), 8 mM MgCl2, 1 mM DTT was added. After the incubation for 10 minutes at room temperature, a portion (20 μL) of the solution was transferred into a 96-well plate. Subsequently, 100 μL of luciferase substrate solution (Piccagene: available from Nippon Gene Co., Ltd.) was added, and a luminous intensity per one second (luciferase activity) was measured using a microluminoreader (Type MLR-100, Corona Electrics Co., Ltd.). Each luciferase activity was corrected by the transfection efficiency which was calculated from β-galactosidase activity. The assay method of β-galactosidase activity was as follows: A portion (50 μL) of the solubilized sample was transferred into another 96-well plate; 100 μL of ONPG (2-nitrophenyl-β-galactopyranoside) solution was added and incubated for 5 minutes at room temperature. 50 μL of a reaction stopping solution (1M sodium carbonate solution) was added. Then the absorbance at 414 nm was measured.
A relative PPAR activity was calculated as follows: 0% (luciferase activity of cells treated with DMSO (0.1%) alone), 100% (luciferase activity of cells treated with a control (PPARα: 10^−4 M […], PPARγ: 10^−5 M Rosiglitazone, PPARδ: 10^−4 M L-165041)).
PPAR transactivation activities of the compounds of Examples 5-10 were assayed in the same manner as described in Example 11.
Relative activities for PPAR transactivation were shown.
Each value represents as % of control. Cells were cultured in the presence of compounds at 10^−7 M except that PPARδ of Examples 5, 6 and 7 were assayed at 10^−8 M.
For orientation: A reporter such as luciferase makes a cellular process visible.

The next experiment concerns the target T2, PPARδ (Homo sapiens, UniProt Q03181).
T2 construct: transfection mixture (250 μL/well) containing 0.03 μg of GAL4-hPPARδ LBD; expressed in transfected cells; host or cells: CV-1 cells
T2 sequence (Q03181 211-439 limits assumed): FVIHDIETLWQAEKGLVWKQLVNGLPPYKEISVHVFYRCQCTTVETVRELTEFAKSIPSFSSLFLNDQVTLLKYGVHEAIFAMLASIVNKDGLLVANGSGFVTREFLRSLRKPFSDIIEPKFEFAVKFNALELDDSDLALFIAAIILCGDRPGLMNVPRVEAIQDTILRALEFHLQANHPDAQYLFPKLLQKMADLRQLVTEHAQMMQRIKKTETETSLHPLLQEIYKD
The experiment can be described thus: PPARδ transactivation activity (GAL4-hPPARδ LBD luciferase reporter in CV-1 cells). To be noted: for PPARδ transactivation activity (statement in words on Table 25) / Relative PPARδ transactivation activity (δ): CV-1 cells, test compound 10^-6 M; for PPARδ transactivation activity (statement in words on Table 25): control 10^-4 M L-165041 = 100%; for Relative PPARδ transactivation activity (δ): 40 hours, 100% = 10^-4 M L-165041, 0% = DMSO (0.1%). It counts as cell-based. As to the method:
PPARδ transactivation activity of the compound of the invention was measured in the manner described below.
A receptor expression plasmid (GAL4-hPPARδ LBD), a reporter plasmid (UASx4-TK-LUC) and a β-galactosidase (β-GAL) expression plasmid were transfected into CV-1 cells by using DMRIE-C reagent. Subsequently, the cells were incubated for 40 hours in the presence of a compound of the invention, and then the luciferase and β-GAL activities of the cell lysate were assayed.
as §1, §2
(§4) CV-1 cells were seeded in 24 well culture plates at 2×10^5 cells per well, and cultured for 24 hours OPTI-MEM I Reduced Serum Medium (Life Technologies, 500 μL/well) containing 4%-fetal bovine serum (FBS). After washing with OPTI-MEM, transfection mixture (250 μL/well) containing 0.03 μg of GAL4-hPPARδ LBD, 0.25 μg of UASx4-TK-LUC, 0.35 μg of βGAL, and 2 μL of lipofection reagent, DMRIE-C (Life Technologies) were added. The cells were incubated for 5 hours at 37° C. […]
as §3

In a further experiment the test system is db/db mice. As to the method:
HDL cholesterol elevating effect was measured by using db/db mice, which are hereditary obesity mice. The db/db mice (10 weeks old) were divided into groups based on serum HDL cholesterol levels. […] Mice of the control group (to which no agent was administered) were orally given 1% methyl cellulose solution. After 16 hours from the final administration, blood sample was collected, and serum HDL cholesterol level was measured. HDL cholesterol was separated by electrophoresis on agarose gels (Chol/Trig Combo, Helena Laboratories). Serum total cholesterol levels were measured enzymaticallly using a kit (Pure Auto, Daiichi Chemicals) by an automatic analyzer (7060E type, Hitachi Ltd.). HDL cholesterol levels were calculated from total cholesterol levels and HDL cholesterol/total cholesterol ratios.
Each value represents as % of the control group.

A further experiment addresses T3, PPARγ (Homo sapiens, UniProt P37231).
T3 construct: Receptor expression plasmid (GAL4-hPPARα, LBD GAL4-hPPARγ LBD, GAL4-hPPARδ LBD); expressed in transfected cells; host or cells: CV-1 cells
T3 sequence (P37231 238-503 limits assumed): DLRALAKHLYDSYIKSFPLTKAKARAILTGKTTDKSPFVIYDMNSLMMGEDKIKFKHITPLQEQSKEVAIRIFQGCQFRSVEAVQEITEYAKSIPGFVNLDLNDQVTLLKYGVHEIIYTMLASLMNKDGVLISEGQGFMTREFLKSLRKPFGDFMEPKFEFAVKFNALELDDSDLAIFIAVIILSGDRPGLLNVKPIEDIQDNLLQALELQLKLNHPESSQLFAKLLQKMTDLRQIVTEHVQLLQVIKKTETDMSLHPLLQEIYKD
Nature of the experiment: PPARγ transactivation activity (GAL4-hPPARγ LBD luciferase reporter in CV-1 cells). It counts as cell-based. The settings on record: for Relative PPARγ transactivation activity (γ): test compound 10^-6 M, 40 hours, CV-1 cells, 100% = 10^-5 M Rosiglitazone, 0% = DMSO (0.1%). As for the experimental part:
as §1, §2, §4, §3

Setting [1] is: compounds at 10^-8 M (Examples 5, 6 and 7).

Consider `Cc1cc2c(CCc3sc(-c4ccc(C(F)(F)F)cc4)nc3C(C)C)noc2cc1OC(C)(C)C(=O)O` [Example 6, 2-[[3-[2-[4-Isopropyl-2-(4-trifluoromethyl)phenyl-5-thiazolyl]ethyl]-5-methyl-1,2-benzisoxazol-6-yl]oxy]-2-methylpropionic acid], for which the “Relative activity for PPAR transactivation, α” value (shortened to “Relative activity … α”) at PPARα is listed as 0 % of control. The “Relative activity for PPAR transactivation, δ” value (“Relative activity … δ” below) on PPARδ (setting [1]) is 54 % of control. The “Ratio of increasing HDL cholesterol” value with db/db mice (10 mg/kg b.i.d. orally for one week, serum 16 hours after final administration) is 164 % to control. Besides, the “HDL cholesterol elevating effect (statement in words on Table 27)” value in the experiment with db/db mice (oral, twice daily for one week, serum HDL cholesterol 16 hours after final administration) was “potent HDL cholesterol elevating effect”. In addition, the “Relative activity for PPAR transactivation, γ” value (from here on “Relative activity … γ”) on PPARγ is given as 0 % of control.

With `Cc1cc2c(CCc3nc(-c4ccc(Cl)cc4Cl)oc3C(C)C)noc2cc1OCC(=O)O` [Example 9, (3-[2-[2-(2,4-Dichlorophenyl)-5-isopropyl-4-oxazolyl]ethyl]-5-methyl-1,2-benzisoxazol-6-yl]oxyacetic acid], the “Relative activity … α” value at PPARα is listed as 0 % of control. In addition, the “Relative activity … δ” value at PPARδ (compounds at 10^-7 M) is 86 % of control. In addition, on PPARγ (compounds at 10^-7 M), the “Relative activity … γ” value is recorded as 2 % of control.

On to `Cc1cc2c(CCc3sc(-c4ccc(C(F)(F)F)cc4)nc3C(C)C)noc2cc1SCC(=O)O` [Example 7, [3-[2-[4-Isopropyl-2-(4-trifluoromethyl)phenyl-5-thiazolyl]ethyl]-5-methyl-1,2-benzisoxazol-6-yl]thioacetic acid], for which, on PPARα, the “Relative activity … α” value is recorded as 0 % of control. For the same compound, on PPARδ (setting [1]), the “Relative activity … δ” value is on record as 63 % of control. For the same compound, the “Relative activity … γ” value at PPARγ (compounds at 10^-7 M) is recorded as 0 % of control.

For `C=CCc1c(OC(C)(C)C(=O)O)ccc2c(CCc3nc(-c4ccc(Cl)cc4Cl)oc3C(C)C)noc12` [Example 2, 2-[[7-Allyl-3-[2-[2-(2,4-dichlorophenyl)-5-isopropyl-4-oxazolyl]ethyl]-1,2-benzisoxazol-6-yl]oxy]-2-methylpropionic acid], the “Relative PPARα transactivation activity (α)” value on PPARα is 8.0%. At PPARδ, the “PPARδ transactivation activity (statement in words on Table 25)” value is given as “selective PPARδ transactivation activity” and the “Relative PPARδ transactivation activity (δ)” value came out at 67.8%. On PPARγ, the “Relative PPARγ transactivation activity (γ)” value was 3.2%.

Consider `Cc1cc2c(CCc3sc(-c4ccc(C(F)(F)F)cc4)nc3C(C)C)noc2cc1OCC(=O)O` [Example 5, [3-[2-[4-Isopropyl-2-(4-trifluoromethyl)phenyl-5-thiazolyl]-ethyl]-5-methyl-1,2-benzisoxazol-6-yl]oxyacetic acid], for which the “Relative activity … α” value at PPARα is 0 % of control. In addition, on PPARδ (setting [1]), the “Relative activity … δ” value was 75 % of control. Also, on PPARγ (compounds at 10^-7 M), the “Relative activity … γ” value is recorded as 0 % of control.

`C=CCc1c(OCC(=O)O)ccc2c(CCc3nc(-c4ccc(Cl)cc4Cl)oc3C(C)C)noc12` [Example 1, [[7-Allyl-3-[2-[2-(2,4-dichlorophenyl)-5-isopropyl-4-oxazolyl]ethyl]-1,2-benzisoxazol-6-yl]oxy]acetic acid]: the “Relative PPARα transactivation activity (α)” value on PPARα worked out at 0.1%. For the same compound, on PPARδ, the “PPARδ transactivation activity (statement in words on Table 25)” value was “selective PPARδ transactivation activity” and the “Relative PPARδ transactivation activity (δ)” value is recorded as 76.9%. On PPARγ, the “Relative PPARγ transactivation activity (γ)” value is reported as 9.4%.

Turning to `Cc1cc2c(CCc3sc(-c4ccc(C(F)(F)F)cc4)nc3C(C)C)noc2cc1OC(C)(C)C(=O)OCCN1CCCCC1.Cl` [Example 10, 2-[[3-[2-[4-Isopropyl-2-(4-trifluoromethyl)phenyl-5-thiazolyl]ethyl]-5-methyl-1,2-benzisoxazol-6-yl]oxy]-2-methylpropionic acid 2-piperidin-1-yl ethyl ester hydrochloride], the “Relative activity … α” value at PPARα is given as 3 % of control. For the same compound, the “Relative activity … δ” value at PPARδ (compounds at 10^-7 M) was 75 % of control. For the same compound, at PPARγ (compounds at 10^-7 M), the “Relative activity … γ” value is recorded as 0 % of control.

`Cc1cc2c(CCc3sc(-c4ccc(C(F)(F)F)cc4)nc3C(C)C)noc2cc1NCC(=O)O` [Example 8, [3-[2-[4-Isopropyl-2-(4-trifluoromethyl)phenyl-5-thiazolyl]ethyl]-5-methyl-1,2-benzisoxazol-6-yl]aminoacetic acid]: the “Relative activity … α” value on PPARα is given as 0 % of control. For the same compound, the “Relative activity … δ” value at PPARδ (compounds at 10^-7 M) is 61 % of control. The “Relative activity … γ” value at PPARγ (compounds at 10^-7 M) is 0 % of control.

As to `C=CCc1c(OC(C)(C)C(=O)O)ccc2c(CCc3sc(-c4ccc(C(F)(F)F)cc4)nc3C(C)C)noc12` [Example 4, 2-[[7-Allyl-3-[2-[2-[(4-trifluoromethyl)phenyl]-4-isopropyl-5-thiazolyl]ethyl]-1,2-benzisoxazol-6-yl]oxy]-2-methylpropionic acid], on PPARα, the “Relative PPARα transactivation activity (α)” value turned out to be 85.0%. Also, the “Relative PPARδ transactivation activity (δ)” value at PPARδ amounted to 59.9%. Further, the “Relative PPARγ transactivation activity (γ)” value at PPARγ was found to be 9.5%.
